Laboratory results from US20080118494A1, “Compositions For Detection Of Latent Hiv Reactivation And Methods Of Using The Same” (priority 2004, published 2008).

What was measured:
[1] = test system: latent HIV-1 infection in human thymocytes derived from SCID-hu (Thy/liv) mice; test: Ex vivo reactivation of latent HIV-1 in thymocytes from infected SCID-hu (Thy/Liv) mice, EYFP flow cytometry; format: cell-based; settings: for EYFP+ cells: 24 h after depletion of EYFP+ cells, untreated 50; for induction of latent HIV-1 expression in thymocytes: range among tissue samples of four animals
Description: SCID-hu (Thy/liv) mice were infected with HIV-1 NLENY1-IRES, and thymocytes were isolated 2-4 weeks following infection. Cells were cultured for two days in the presence of AZT and indinavir to stop de novo infection and then subjected to fluorescence activated cell sorting to remove all EYFP^+ cells. Immediately following cell separation, the cells were seeded at a concentration of 1×10^6 cell/ml, cultured in supplemented RPMI 1640 to determine levels of spontaneous reactivation, stimulated with PMA, TNF-α, activating anti-CD28 antibody (clone 5D10) and the […] sodium butyrate (NaBu; two animals only). Levels of reactivation achieved in HIV-1 infected thymocytes derived from 4 different SCID-hu (Thy/liv) mice following ex vivo reactivation with the indicated stimulators are depicted as fold induction of […].
Isolation of thymocytes from SCID-hu (Thy/Liv) mice. Thy/Liv implants from the infected mice were harvested 2-4 weeks post infection and single cell suspensions generated by dissociation of the tissue. Thymocytes were isolated by Ficoll-Paque density gradient centrifugation and were cultured for two days in RPMI 1640 supplemented with 10% heat-inactivated FBS, 2 mM L-glutamine, 100 U/ml of penicillin, and 100 μg/ml of streptomycin, in the presence of indinavir and AZT, to inhibit de novo infection. Productively infected thymocytes, which expressed EYFP, were then removed from the cultures by FACS sorting. Purity of the resulting EYFP-negative cell population was determined by flow cytometric analysis for EYFP and was usually greater than 99.9%. Immediately following the sort, cells were stimulated. HIV-1 reactivation, as indicated by the de novo expression of EYFP was quantified by flow cytometry, acquiring at least 1×10^6 cells per sample in the live gate.
Reactivation of latent HIV-1 infection by anti-CD28 antibodies in human thymocytes derived from SCID-hu (Thy/liv) mice. Whether activating anti-CD28 antibody would also reactivate latent HIV-1 in a system where latency in primary cells was achieved under in vivo conditions was tested. For this purpose, a modification of the HIV-1 established SCID-hu (Thy/Liv) mouse system was used that has been previously used for the study of HIV-1 latency. Brooks et al., Nat. Med. 7:459-464 (2001). SCID-hu (Thy/Liv) mice were infected with HIV-1 NLENY1-IRES to allow for the easy and direct detection of infected cells using flow cytometry. Levy et al., Proc. Nat. Acad. Sci. 101:4204-4209 (2004). […] Levels of infection were determined by flow cytometry for EYFP, and varied in the different animals between 0.5 and 6% of the total thymocyte population. […] The cultures were then subjected to fluorescence activated cell sorting to remove all EYFP positive cells. […]

[2] = test system: latent HIV-1 infection in bulk population of latently infected JLTRG cells; test: Reactivation of latent HIV-1 in a bulk population of latently infected cells, flow cytometry; format: cell-based; settings: optimal concentration of each compound, day 57 bulk population, 100,000 viable cells counted
Description: (A) Jurkat cells were infected with an EGFP expressing, replication incompetent reporter virus and the level of productive HIV-1 infection at each indicated time-point was directly assessed by flow cytometric analysis for EGFP expression (untreated; black circles). Levels of initial non-productive and later on latent HIV-1 infection was determined 24 hours following TNF-α stimulation (black squares). The results represent the mean ±S.D. of three independent experiments.
a) Quantification of the HIV-1 reactivating capabilities of test compounds. Following infection, HIV-1 integrates into the cellular genome. Integration is random, although HIV-1 preferentially integrates into euchromatin structures. Latency development can be thus influenced by a multitude of factors that alter gene expression or DNA structure, such as divergent gene expression patterns or the cell cycle stage at the time point of viral integration. Although the reporter cell lines are representative for the majority of latently infected cells and reliably identify most reactivating agents during the screening effort, they can not allow quantification of the capability of the individual compounds to reactivate HIV-1 infection from a diverse population of latently infected cells. To account for the influence that the side of integration of a latent virus can have on a compounds ability to reactivate the virus, a bulk population of latently infected cells (FIG. 7) was established. Following infection of JLTRG cells with HIV-1 NL43, a rapid increase of the level of infection can be observed. On day 3, an average 27% of the cells were productively infected. […] Until day 15, the percentage of productively infected cells rapidly declined to 3% of the overall cell population. At this time point, an additional 5% of the cells were non-productively infected. […] Since 1×10^6 cells were initially infected, and virus mediated inhibition of cell proliferation influences the relative level of infection over time can be excluded, it can be calculated that the latently infected cell population should consist of […] individual latently infected cells. This bulk population of cells allows quantification of the capability of the respective compounds to reactivate latent HIV-1. […] Each compound was titrated over a two-log concentration range to allow for optimal reactivation. The results for the optimal concentration of each compound are depicted in FIG. 7B. […] TNF-α (10 ng/ml) reactivated latent HIV-1 infection in 5% of the cells, whereas the DNA histone deacetylase inhibitors trichostatin A (TSA) and sodium butyrate (NaBu) reactivated latent HIV-1 infection in only 3% or 2.5% of the cells, respectively. To achieve an accurate estimate of the differences in the capability of different agents to reactivate HIV-1 infection it is important to run a sufficiently high number of cells. For this flow cytometry based analysis, 100,000 cells viable per sample were counted.

| Molecule | EYFP+ cells [1] | induction of latent HIV-1 expression in thymocytes [1] | cells in which latent HIV-1 infection was reactivated [2] |
| --- | --- | --- | --- |
| CCCCCCCCCCCCCC(=O)O[C@@H]1[C@@H](C)[C@@]2(O)[C@@H](C=C(CO)C[C@]3(O)C(=O)C(C)=C[C@@H]23)[C@@H]2C(C)(C)[C@]12OC(C)=O [PMA, 13-phorbol-12-myristate acetate] | 260 cells of 1×10^6 cells | 2.5-7 fold | 7% |
| TNF-α | 250 cells of 1×10^6 cells | 3-6 fold | 5% |
